Six compounds from patent publication US4962203A, “2-substituted quinolines useful as leukotriene antagonists” (Merck Frost Canada, Inc., priority 1989, dated 1990) can be followed below.

For test [1], the system named is guinea pig ileum (LTD4 induced contractions). Kind of test: Guinea-pig ileum assay: inhibition of LTD4 induced contractions. The settings on record: for inhibition at 0.001 µg/mL / inhibition at 0.01 µg/mL / inhibition at 0.1 µg/mL / inhibition at 1 µg/mL / inhibition at 10 µg/mL: Cavia porcellus, LTD4 0.3 ng/mL, read-out: % inhibition of LTD4 induced contractions, G.P. ileum assay; for inhibition at 0.001 µg/mL: drug conc. 0.001 μg/mL; for inhibition at 0.01 µg/mL: drug conc. 0.01 μg/mL; for inhibition at 0.1 µg/mL: drug conc. 0.1 μg/mL; for inhibition at 1 µg/mL: drug conc. 1 μg/mL; for inhibition at 10 µg/mL: drug conc. 10 μg/mL; for ability to inhibit LTD4 contractions of the guinea pig ileum, times greater than the reference compound: relative to the reference compound of Table I. The arrangement: species or system male Hartley strain guinea pigs. The procedure: Guinea-Pig Ileum Preparation for Evaluation of Antagonists of Leukotriene D4 and Other Mediators
Tissue--Sections of ileum were taken from male Hartley strain guinea pigs (Charles River, U.S.A.) 300 to 500 g which were sacrificed by a blow to the head and exsanguinated. Terminal ileum was removed, cleaned with warm Tyrode's solution and then divided into segments of approximately […]. The segments of ileum were then mounted under 1 g tension in a 20 mL organ bath containing 10 mL of Tyrode's solution with the following composition (mM): NaCl, 137; KCl, 2.7; MgSO4, 7H2 O, 0.8; CaCl2, 1.8; NaH2 PO4, 0.42; NaHCO3, 11.9; Dextrose, 5.6. The bathing solution was continuously aerated with 95% O2 and 5% CO2 and bath temperature was maintained at 37° C. The beta adrenoceptor blocker, timolol (0.5 μg/mL) and the antimuscarinic agent atropine (1.0 μM) were present in the Tyrodeμs solution. Isometric tension changes were recorded using Grass FTO3 force displacement transducers (Grass Instrument G., Quincy, Mass.) connected to a Beckman Type R Dynograph. In order to wash the tissue, the bath solution was automatically aspirated and replaced with a constant volume (10 mL) of fresh solution by means of timer controlled solenoid valves.
After the tissues were stable a standard dose of LTD4 (0.3 ng/mL) was repeatedly added to the bath every 4-5 minutes (min contact, 30 sec wash, 3 min rest) until a consistent response was obtained (minimum of 4 responses). Following each addition of LTD4 the tissue was washed with Tyrode's solution until baseline tension was re-established. After consistent responses were obtained the tissues were used to screen compounds.
Usually, 10 μL of a 10 mg/mL solution of the compound to be tested was added to the bath 30 secs prior to the addition of LTD4. The compound and LTD4 remained in contact with the tissue until the maximum tension was developed (1 min) after which the tissue was washed repeatedly until the baseline was re-established. Percent inhibition relative to the immediately preceding control response was calculated for each dose of test compound. […] Provided the response was inhibited by less than 20%, the tissue was used immediately to evaluate another compound; when the response was inhibited by greater than 20%, cycles of LTD4 alone were added until a consistent response was re-established.

For a further test, the target named is T1, LTD4 binding (Cavia porcellus, UniProt Q2NNR5).
T1 construct: from tissue
T1 sequence (Q2NNR5 1-340): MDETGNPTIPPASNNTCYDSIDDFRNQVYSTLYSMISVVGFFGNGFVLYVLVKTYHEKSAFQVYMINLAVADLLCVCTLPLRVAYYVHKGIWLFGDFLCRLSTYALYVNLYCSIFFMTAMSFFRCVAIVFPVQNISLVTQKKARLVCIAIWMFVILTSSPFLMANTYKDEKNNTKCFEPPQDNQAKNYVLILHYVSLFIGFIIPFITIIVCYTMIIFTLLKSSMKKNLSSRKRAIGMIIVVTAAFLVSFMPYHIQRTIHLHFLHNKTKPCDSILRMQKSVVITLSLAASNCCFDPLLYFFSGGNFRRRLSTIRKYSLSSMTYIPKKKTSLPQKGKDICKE
Kind of test: LTD4 binding assay. The settings on record: for IC50: 50% LTD4 bound, unit inferred, read-out: LTD4 binding assay, drug conc. (IC50 values for the numbered examples); for LTD4 binding activity, times greater than the reference compound: relative to the reference compound of Table I. The procedure:
The results for LTD4 binding were determined by the method of S. S. Pong and R. N. DeHaven, Proc. Nat. Acad. Sci. U.S.A., 80, 7415-7419 (1983).
The drug concentration in the LTD4 binding assay for the numbered examples are the IC50 values. The LTD4 binding activity of these ranges from at least 14 (Ex. 85) to at least 214 (Ex. 71) times greater than the reference compound. The actual differences are even greater since an IC50 was not obtained for the reference compound.

One may read the inhibition as how much of the control response was suppressed. Usually IC50 stands for the concentration that inhibits the measured activity by half.

For `CC(Oc1cccc(/C=C/c2ccc3ccc(Cl)cc3n2)c1)C(=O)O` (stereo not drawn), in test [1], the inhibition at 0.001 µg/mL was 38%, the inhibition at 0.01 µg/mL amounted to 94%, the inhibition at 0.1 µg/mL worked out at 95% and the inhibition at 1 µg/mL was determined as 97%. Moreover, the inhibition at 10 µg/mL in test [1] was 94%. Moreover, on LTD4 binding (at the drug conc. (IC50)), the “% LTD4 bound, LTD4 binding assay” value came to 50%.

As to `CC(Oc1cccc(C#Cc2ccc3ccc(Br)cc3n2)c1)C(=O)O` (stereo not drawn), in test [1], the inhibition at 0.001 µg/mL turned out to be 50%, the inhibition at 0.01 µg/mL is 91%, the inhibition at 0.1 µg/mL was 94% and the inhibition at 1 µg/mL was determined as 98%. Further, the inhibition at 10 µg/mL in test [1] is 97%. Also, at LTD4 binding, the IC50 worked out at 96 nM. In addition, the “% LTD4 bound, LTD4 binding assay” value at LTD4 binding (at the drug conc. (IC50)) turned out to be 50%.

With `CC(Oc1cccc(C2CC2c2ccc3ccc(Cl)cc3n2)c1)c1nn[nH]n1` (stereo not drawn), in test [1], the inhibition at 0.01 µg/mL worked out at 37%, the inhibition at 0.1 µg/mL was 87%, the inhibition at 1 µg/mL came out at 96% and the inhibition at 10 µg/mL stood at 94%. Besides, the “% LTD4 bound, LTD4 binding assay” value at LTD4 binding (at the drug conc. (IC50)) came to 50%.

With `CC(Oc1cccc(/C=C/c2ccc3ccc(Cl)cc3n2)c1)c1nn[nH]n1` (racemic) [Example 71, 5-(1-(3-(2-(7-chloroquinolin-2-yl)ethenyl)-phenoxy)ethyl)tetrazole], in test [1], the inhibition at 0.001 µg/mL came to 67%, the inhibition at 0.01 µg/mL was determined as 92%, the inhibition at 0.1 µg/mL amounted to 100% and the inhibition at 1 µg/mL came to 98%. For the same compound, in test [1], the inhibition at 10 µg/mL was 97% and the “ability to inhibit LTD4 contractions of the guinea pig ileum, times greater than the reference compound” value was “over 1000 times”. In addition, at LTD4 binding, the IC50 was determined as 14 nM and the “LTD4 binding activity, times greater than the reference compound” value is listed as “at least 214 times”. The “% LTD4 bound, LTD4 binding assay” value on LTD4 binding (at the drug conc. (IC50)) is 50%.

Consider `CC(Oc1cccc(OCc2ccc3ccc(Br)cc3n2)c1)C(=O)O` (stereo not drawn) [Example 85, 2-(3-(7-bromoquinolin-2-ylmethoxy)phenoxy)propanoic acid], for which, in test [1], the inhibition at 0.001 µg/mL turned out to be 0%, the inhibition at 0.01 µg/mL stood at 10%, the inhibition at 0.1 µg/mL turned out to be 57% and the inhibition at 1 µg/mL is 93%. Further, in test [1], the inhibition at 10 µg/mL amounted to 100% and the “ability to inhibit LTD4 contractions of the guinea pig ileum, times greater than the reference compound” value is given as “about 20 times”. Moreover, at LTD4 binding, the IC50 was 220 nM and the “LTD4 binding activity, times greater than the reference compound” value was “at least 14 times”. Besides, the “% LTD4 bound, LTD4 binding assay” value on LTD4 binding (at the drug conc. (IC50)) is reported as 50%.

With `CC(Oc1cccc(Sc2ccc3ccc(Cl)cc3n2)c1)C(=O)O` (stereo not drawn) [reference compound], in test [1], the inhibition at 1 µg/mL amounted to 27% and the inhibition at 10 µg/mL was 89%. For the same compound, the “% LTD4 bound, LTD4 binding assay” value at LTD4 binding (reference compound, drug conc. 3 × 10^-6 (unit not given)) amounted to 76%.
